Source: ChEMBL document CHEMBL6121008, “New series of 3-pyridyl-1,3-thiazoles: In vitro and in vivo anti-Trypanosomatidae profile, in vitro and in silico mechanism of action approach” (Eur J Med Chem, 2025)
pIC50: −log10 of the molar value.

How the values were obtained:
[1] = system: Trypanosoma cruzi; experiment: (§1) Antiparasitic activity against trypomastigote form of Trypanosoma cruzi Tulahuen expressing Escherichia coli beta-galactosidase infected in mouse L929 cells assessed as reduction in parasitic growth using CPRG as substrate pretreated with compound for 96 hrs followed by substrate addition and measured after 16 to 20 hrs by Spectrophotometric analysis; assay type: functional, organism-based
[2] = Cytotoxicity against mouse L929 cells assessed as inhibition of cell viability incubated for 96 hrs by MTT assay; assay type: toxicity, cell-based
[3] = Selectivity index, ratio of CC50 for mouse L929 cells to IC50 for antiparasitic activity against trypomastigote and amastigote form of Trypanosoma cruzi Tulahuen expressing Escherichia coli beta-galactosidase infected in mouse L929 cells; assay type: toxicity; conditions: read-out: Selectivity Index
[4] = system: Trypanosoma cruzi; experiment: as §1, with “amastigote” for “trypomastigote”; assay type: functional, organism-based
[5] = system: Leishmania amazonensis; experiment: (§2) Antiparasitic activity against Leishmania amazonensis WHOM/00 LTB 0016 promastigote expressing Escherichia coli beta-galactosidase assessed as reduction in parasitic growth using CPRG as substrate preincubated with compound for 72 hrs followed by substrate addition and measured after 10 mins by Spectrophotometric analysis; assay type: functional, organism-based; conditions: for pIC50: Leishmania amazonensis, WHOM/00 LTB 0016, read-out: IC50
[6] = system: Leishmania infantum; experiment: as §2, with “infantum MHOM/MA/67/ITMAP-263” for “amazonensis WHOM/00 LTB 0016”; assay type: functional, organism-based; conditions: for pIC50: Leishmania infantum, MHOM/MA/67/ITMAP-263, read-out: IC50
[7] = system: Leishmania amazonensis; experiment: as §2, with “amastigote” for “WHOM/00 LTB 0016 promastigote”, “beta-galactosidase infected in mouse RAW264.7 cells” for “beta-galactosidase”, “24” for “72”, “2 to 6 hrs” for “10 mins”; assay type: functional, organism-based; conditions: for IC50: raw264.7; for pIC50: Leishmania amazonensis, RAW264.7, read-out: IC50
[8] = system: Leishmania infantum; experiment: Antiparasitic activity against Leishmania infantum amastigote expressing Escherichia coli beta-galactosidase infected in mouse RAW264.7 cells assessed as reduction in parasitic growth using CPRG as substrate preincubated with compound for 24 hrs followed by substrate addition and measured after 2 to 6 hrs by Spectrophotometric analysis; assay type: functional, organism-based; conditions: for IC50: raw264.7; for pIC50: Leishmania infantum, RAW264.7, read-out: IC50
[9] = Cytotoxicity against mouse RAW264.7 cells assessed as inhibition of cell viability incubated for 48 hrs by MTT assay; assay type: toxicity, cell-based
[10] = Selectivity index, ratio of CC50 for mouse RAW264.7 cells to IC50 for antiparasitic activity against Leishmania infantum MHOM/MA/67/ITMAP-263 promastigote expressing Escherichia coli beta-galactosidase; assay type: toxicity; conditions: read-out: Selectivity Index
[11] = Selectivity index, ratio of CC50 for mouse RAW264.7 cells to IC50 for antiparasitic activity against Leishmania amazonensis WHOM/00 LTB 0016 promastigote expressing Escherichia coli beta-galactosidase; assay type: toxicity; conditions: read-out: Selectivity Index
[12] = Selectivity index, ratio of CC50 for mouse RAW264.7 cells to IC50 for antiparasitic activity against Leishmania infantum amastigote expressing Escherichia coli beta-galactosidase infected in mouse RAW264.7 cells; assay type: toxicity; conditions: read-out: Selectivity Index
[13] = Selectivity index, ratio of CC50 for mouse RAW264.7 cells to IC50 for antiparasitic activity against Leishmania amazonensis amastigote expressing Escherichia coli beta-galactosidase infected in mouse RAW264.7 cells; assay type: toxicity; conditions: read-out: Selectivity Index
[14] = system: Trypanosoma cruzi; experiment: Antiparasitic activity against trypomastigote form of Trypanosoma cruzi Y assessed as appearance of twisted bodies by Electron micrographic analysis; assay type: functional, organism-based

C/C(=N\N=c1\scc(-c2ccc([N+](=O)[O-])cc2)n1C)c1cccnc1
pIC50 [1]: 5.60 | CC50 at 96 h [2]: 88.6 µM | selectivity ratio [3]: 35.4 | pIC50 [4]: 5.60 | pIC50 [5]: 3.78 | pIC50 [6]: 3.70 | IC50 [7]: Not_active | IC50 [8]: Not_active | CC50 at 48 h [9]: 41.2 µM | selectivity ratio [10]: 0.2 | selectivity ratio [11]: 0.2

C/C(=N\N=c1\scc(-c2ccccc2)n1-c1ccccc1)c1cccnc1
pIC50 [1]: 5.24 | CC50 at 96 h [2]: 11.6 µM | selectivity ratio [3]: 2 | pIC50 [4]: 5.24 | pIC50 [5]: 4.81 | pIC50 [6]: 4.51 | pIC50 [7]: 4.87 | pIC50 [8]: 5.05 | CC50 at 48 h [9]: 29.4 µM | selectivity ratio [10]: 0.9 | selectivity ratio [12]: 3.3 | selectivity ratio [11]: 1.9 | selectivity ratio [13]: 2.2

C/C(=N\NC(=S)Nc1ccccc1)c1cccnc1
pIC50 [5]: 5.15 | pIC50 [6]: 4.66 | pIC50 [8]: 4.68 | selectivity ratio [10]: 4.4 | selectivity ratio [12]: 4.5 | selectivity ratio [11]: 13.7

C/C(=N\N=c1\scc(-c2cccc([N+](=O)[O-])c2)n1-c1ccccc1)c1cccnc1
pIC50 [1]: 5.54 | CC50 at 96 h [2]: 18.3 µM | selectivity ratio [3]: 6.3 | pIC50 [4]: 5.54 | pIC50 [5]: 5.19 | pIC50 [6]: 4.63 | pIC50 [7]: 5.03 | pIC50 [8]: 4.94 | CC50 at 48 h [9]: > 240 µM | selectivity ratio [10]: > 10.3 | selectivity ratio [12]: > 20.8 | selectivity ratio [11]: > 37 | selectivity ratio [13]: > 25.6

CCCCCCCCCCCCCCCCOP(=O)([O-])OCC[N+](C)(C)C [MILTEFOSINE]
pIC50 [6]: 5.49 | pIC50 [7]: 5.77 | pIC50 [8]: 5.77 | selectivity ratio [10]: 6.8 | selectivity ratio [12]: 12.7 | selectivity ratio [11]: 6.8 | selectivity ratio [13]: 13.1

C/C(=N\N=c1\scc(-c2ccc(F)cc2)n1C)c1cccnc1
pIC50 [1]: 5.43 | CC50 at 96 h [2]: 15.6 µM | selectivity ratio [3]: 4.2 | pIC50 [4]: 5.43 | pIC50 [5]: 4.49 | pIC50 [6]: 4.68 | pIC50 [7]: 4.76 | pIC50 [8]: 4.90 | CC50 at 48 h [9]: 15 µM | selectivity ratio [10]: 0.7 | selectivity ratio [12]: 1.2 | selectivity ratio [11]: 0.5 | selectivity ratio [13]: 0.9

C/C(=N\N=c1/[nH]c(-c2ccc(C)cc2)cs1)c1cccnc1
pIC50 [1]: 5.41 | CC50 at 96 h [2]: 293 µM | selectivity ratio [3]: 75.1 | pIC50 [4]: 5.41 | Activity [14]: Dose-dependent-effect | pIC50 [5]: < 3.49 | IC50 [6]: Not_active | pIC50 [7]: 4.48 | IC50 [8]: Not_active | CC50 at 48 h [9]: 25 µM | selectivity ratio [11]: < 0.1 | selectivity ratio [13]: 0.8

COc1ccc(-c2cs/c(=N/N=C(\C)c3cccnc3)n2-c2ccccc2)cc1
pIC50 [1]: > 6.70 | CC50 at 96 h [2]: 5.2 µM | selectivity ratio [3]: > 26 | pIC50 [4]: > 6.70 | pIC50 [5]: 5.28 | pIC50 [6]: 4.78 | pIC50 [7]: 5.22 | pIC50 [8]: 5.02 | CC50 at 48 h [9]: 22 µM | selectivity ratio [10]: 1.3 | selectivity ratio [12]: 2.3 | selectivity ratio [11]: 4.2 | selectivity ratio [13]: 3.7

CNC(=S)N/N=C(\C)c1cccnc1
pIC50 [5]: 3.47 | IC50 [6]: Not_active | pIC50 [7]: 3.74 | IC50 [8]: Not_active | CC50 at 48 h [9]: 148 µM | selectivity ratio [11]: 0.4 | selectivity ratio [13]: 0.8

COc1ccc(-c2cs/c(=N/N=C(\C)c3cccnc3)n2C)cc1
pIC50 [1]: 5.70 | CC50 at 96 h [2]: 6.2 µM | selectivity ratio [3]: 3.1 | pIC50 [4]: 5.70 | pIC50 [5]: 4.41 | pIC50 [6]: 4.70 | pIC50 [7]: 4.83 | pIC50 [8]: 4.91 | CC50 at 48 h [9]: 14.7 µM | selectivity ratio [10]: 0.7 | selectivity ratio [12]: 1.2 | selectivity ratio [11]: 0.4 | selectivity ratio [13]: 1

C/C(=N\NC(N)=S)c1cccnc1
IC50 [5]: Not_active | IC50 [6]: Not_active | pIC50 [7]: 3.56 | pIC50 [8]: 3.79 | CC50 at 48 h [9]: 213 µM | selectivity ratio [12]: 1.3 | selectivity ratio [13]: 0.8

C[C@@H]1[C@H](O)[C@@H](C)/C=C/C=C/C=C/C=C/C=C/C=C/C=C/[C@H](O[C@@H]2O[C@H](C)[C@@H](O)[C@H](N)[C@@H]2O)C[C@@H]2O[C@](O)(C[C@@H](O)C[C@@H](O)[C@H](O)CC[C@@H](O)C[C@@H](O)CC(=O)O[C@H]1C)C[C@H](O)[C@H]2C(=O)O [AMPHOTERICIN B]
pIC50 [5]: 7.00 | pIC50 [6]: 6.70 | pIC50 [7]: 7.40 | pIC50 [8]: 7.22 | CC50 at 48 h [9]: 3.5 µM | selectivity ratio [10]: 17.5 | selectivity ratio [12]: 58.3 | selectivity ratio [11]: 35 | selectivity ratio [13]: 87.5

C/C(=N\N=c1\scc(-c2ccc(F)cc2)n1-c1ccccc1)c1cccnc1
pIC50 [1]: 5.12 | CC50 at 96 h [2]: 14.4 µM | selectivity ratio [3]: 1.9 | pIC50 [4]: 5.12 | pIC50 [5]: 5.14 | pIC50 [6]: 4.52 | pIC50 [7]: 5.17 | pIC50 [8]: 4.97 | CC50 at 48 h [9]: 41.2 µM | selectivity ratio [10]: 1.4 | selectivity ratio [12]: 3.8 | selectivity ratio [11]: 5.7 | selectivity ratio [13]: 6.1

C/C(=N\N=c1/[nH]c(-c2ccc([N+](=O)[O-])cc2)cs1)c1cccnc1
pIC50 [1]: 4.23 | CC50 at 96 h [2]: > 295 µM | selectivity ratio [3]: > 5 | pIC50 [4]: 4.23 | IC50 [5]: Not_active | IC50 [6]: Not_active | pIC50 [7]: 3.53 | pIC50 [8]: 4.34 | CC50 at 48 h [9]: 63.6 µM | selectivity ratio [12]: 1.4 | selectivity ratio [13]: 0.2

C/C(=N\N=c1\scc(-c2ccc(C)cc2)n1-c1ccccc1)c1cccnc1
pIC50 [1]: 5.47 | CC50 at 96 h [2]: 7.3 µM | selectivity ratio [3]: 2.1 | pIC50 [4]: 5.47 | pIC50 [5]: 5.36 | pIC50 [6]: 4.83 | pIC50 [7]: 5.14 | pIC50 [8]: 4.79 | CC50 at 48 h [9]: 18.7 µM | selectivity ratio [10]: 1.3 | selectivity ratio [12]: 1.2 | selectivity ratio [11]: 4.2 | selectivity ratio [13]: 2.6

C/C(=N\N=c1\scc(-c2ccc([N+](=O)[O-])cc2)n1-c1ccccc1)c1cccnc1
pIC50 [1]: 5.54 | CC50 at 96 h [2]: 25.8 µM | selectivity ratio [3]: 8.9 | pIC50 [4]: 5.54 | pIC50 [5]: 4.73 | pIC50 [6]: 3.93 | pIC50 [7]: 5.11 | pIC50 [8]: 5.04 | CC50 at 48 h [9]: 22.1 µM | selectivity ratio [10]: 0.2 | selectivity ratio [12]: 2.4 | selectivity ratio [11]: 1.2 | selectivity ratio [13]: 2.9

C/C(=N\N=c1\scc(-c2cccc([N+](=O)[O-])c2)n1C)c1cccnc1
pIC50 [1]: 6.00 | CC50 at 96 h [2]: 13.3 µM | selectivity ratio [3]: 13.3 | pIC50 [4]: 6.00 | IC50 [5]: Not_active | IC50 [6]: Not_active | IC50 [7]: Not_active | pIC50 [8]: 4.48 | CC50 at 48 h [9]: 17.5 µM | selectivity ratio [12]: 0.5

C/C(=N\N=c1/[nH]c(-c2ccc(F)cc2)cs1)c1cccnc1
pIC50 [1]: 5.42 | CC50 at 96 h [2]: > 320 µM | selectivity ratio [3]: > 84.2 | pIC50 [4]: 5.42 | IC50 [5]: Not_active | IC50 [6]: Not_active | pIC50 [7]: 4.35 | IC50 [8]: Not_active | CC50 at 48 h [9]: 52.3 µM | selectivity ratio [13]: 0.6

C/C(=N\N=c1\scc(-c2ccc(C)cc2)n1C)c1cccnc1
pIC50 [1]: 5.31 | CC50 at 96 h [2]: 23 µM | selectivity ratio [3]: 4.7 | pIC50 [4]: 5.31 | pIC50 [5]: 4.12 | pIC50 [6]: 4.27 | pIC50 [7]: 4.51 | pIC50 [8]: 4.74 | CC50 at 48 h [9]: 36.2 µM | selectivity ratio [10]: 0.7 | selectivity ratio [12]: 2 | selectivity ratio [11]: 0.5 | selectivity ratio [13]: 1.2
